Experiments:
[1] = Partition coefficient (logP); type: physicochemical; conditions: octanol/water
[2] = Deoxyribose degradation as a measure of hydroxyl-radical generation.; type: functional
[3] = In vitro for antiproliferate activity against HaCaT cells; type: functional, cell-based; conditions: Homo sapiens
[4] = Compound was measured for lactate dehydrogenase (LDH) release in HaCaT cells after treatment with 2 uM; type: functional, Homo sapiens

## O=C1c2c(O)cccc2C(CCc2ccc(O)c(O)c2)c2cccc(O)c21
[1]
  logP: 3.65
[2]
  Activity (uM of MDA (mM of deoxyribose)-1): 0.56
[3]
  IC50: > 5 µM

## COc1ccc(CC(=O)C2c3cccc(O)c3C(=O)c3c(O)cccc32)cc1
[1]
  logP: 4.2
[2]
  Activity (uM of MDA (mM of deoxyribose)-1): < 0.2
[4]
  LDH: 143 MU
[3]
  IC50: 1.1 µM

## O=C1c2c(O)cccc2C(CCCCc2ccccc2)c2cccc(O)c21
[1]
  logP: 5.72
[2]
  Activity (uM of MDA (mM of deoxyribose)-1): < 0.2
[3]
  IC50: < 5 µM

## O=C1c2c(O)cccc2C(CCc2ccc(O)cc2)c2cccc(O)c21
[1]
  logP: 4.1
[2]
  Activity (uM of MDA (mM of deoxyribose)-1): 0.4
[4]
  LDH: 136 MU
[3]
  IC50: 3.8 µM

## O=C1c2c(O)cccc2C(Cc2ccncc2)c2cccc(O)c21
[1]
  logP: 3.47
[2]
  Activity (uM of MDA (mM of deoxyribose)-1): 1.25
[4]
  LDH: 179 MU
[3]
  IC50: 1.8 µM

## COc1ccc(CC2c3cccc(O)c3C(=O)c3c(O)cccc32)cc1
[1]
  logP: 4.45
[2]
  Activity (uM of MDA (mM of deoxyribose)-1): < 0.2
[4]
  LDH: 152 MU
[3]
  IC50: > 5 µM

## COc1ccc(CCC2c3cccc(O)c3C(=O)c3c(O)cccc32)cc1OC
[1]
  logP: 4.55
[2]
  Activity (uM of MDA (mM of deoxyribose)-1): < 0.2
[3]
  IC50: 3 µM

## O=C1c2c(O)cccc2C(CCc2cc(O)c(O)c(O)c2)c2cccc(O)c21
[1]
  logP: 3.09
[2]
  Activity (uM of MDA (mM of deoxyribose)-1): 2.3
[4]
  LDH: 225 MU
[3]
  IC50: > 5 µM

## O=C1c2c(O)cccc2C(Cc2ccccc2)c2cccc(O)c21
[2]
  Activity (uM of MDA (mM of deoxyribose)-1): 0.35
[4]
  LDH: 150 MU
[3]
  IC50: > 5 µM

## O=C1c2c(O)cccc2C(CCc2ccccc2)c2cccc(O)c21
[1]
  logP: 5.27
[2]
  Activity (uM of MDA (mM of deoxyribose)-1): < 0.2
[3]
  IC50: < 5 µM

## COc1ccc(CCC2c3cccc(O)c3C(=O)c3c(O)cccc32)cc1
[1]
  logP: 5.07
[2]
  Activity (uM of MDA (mM of deoxyribose)-1): < 0.2
[4]
  LDH: 129 MU
[3]
  IC50: 0.9 µM

## COc1cc(CCC2c3cccc(O)c3C(=O)c3c(O)cccc32)cc(OC)c1OC
[1]
  logP: 4.37
[2]
  Activity (uM of MDA (mM of deoxyribose)-1): 0.97
[3]
  IC50: 4.1 µM

## O=C1c2c(O)cccc2C(CCCc2ccccc2)c2cccc(O)c21
[1]
  logP: 5.51
[2]
  Activity (uM of MDA (mM of deoxyribose)-1): < 0.2
[4]
  LDH: 130 MU
[3]
  IC50: > 5 µM

## O=C1c2c(O)cccc2Cc2cccc(O)c21 [ANTHRALIN]
[4]
  LDH: 294 MU
[3]
  IC50: 0.7 µM

## O=C1c2c(O)cccc2C(Cc2ccc([N+](=O)[O-])cc2)c2cccc(O)c21
[1]
  logP: 4.16
[2]
  Activity (uM of MDA (mM of deoxyribose)-1): < 0.2
[4]
  LDH: 142 MU
[3]
  IC50: < 5 µM

From ChEMBL document CHEMBL1131554, “10-omega-phenylalkyl-9(10H)-anthracenones as inhibitors of keratinocyte growth with reduced membrane damaging properties” (Bioorg Med Chem Lett, 1998)
